Measurements taken from US12075776B2, “Synthetic lures” (VICTORIA LINK LIMITED, priority 2016, dated 2024).

Columns and labels:
Type in all cases: in vivo
wild, free-ranging rats [1] = assay: Model selection / model averaging of blend-trial response variables (Visitation, Contact, Marking, Intensity); conditions: for relative importance of variable (model averaging), Contact: response variable Contact (chew or bite marks); for relative importance of variable (model averaging), Marking: response variable Marking (urination and/or faecal marking); for relative importance of variable (model averaging), Visitation: response variable Visitation (tracking), presence/absence of compound in lure as predictor
Text: (§1) Trials were designed to compare the performance of each lure relative to the best performing lure after each successive trial phase. The elimination of poorer performing lures allowed for higher levels of internal replication and the inclusion of additional multi-component blend lures to Phase Two. Lures were scored using the presence/absence of rat tracks on inked tracking cards to provide a proportion of tracking cards receiving species-specific visitations and hereafter termed the ‘tracking rate’. The tracking rate was used to direct the elimination process. Lures that were statistically less attractive than the best performing lure after Phase One trials were eliminated from subsequent trials. Three behavioural response variables were scored that were designed to quantify the strength of the visit to the respective lure: (1) the presence of urination and/or faecal marking in or on the tracking tunnel and hereafter termed ‘Marking’; (2) the presence of chew or bite marks on the microtube and/or tracking tunnel and hereafter termed ‘Contact’ and; (3) the amount of footprints on each tracking card that received a visitation. This was measured using a 10 cm×47 cm Perspex sheet with a grid made up of 1 cm^2 squares. The number of squares with species-specific tracks was calculated to provide a score, hereafter termed ‘Intensity’. Intensity was designed to identify lures that generated intensive or multiple visits by an individual or that elicited visits from multiple individuals.
A multi-model information-theoretic approach was used at the end of Phase Two to identify the models of best fit for each of the four response variables (Tracking, Marking, Contact and Intensity) and to investigate possible synergistic effects between compounds used in multi-component blends. Data for each lure comprising one or any combination of A6, B6, C6, F7 and/or 17 were collated. Model averaging was used to identify each compounds relative importance to each response variable.
Binomial tests were used to compare the performance of each lure to the best performing lure at the end of each in-field trial phase and drive the process. Tracking, Marking and Contact models were run as generalised linear mixed-effects models (GLMM) with a binomial distribution and logit link and a linear mixed-effects model (LMM) for Intensity. The presence/absence of compounds in each lure were used as predictor variables.
A ‘Global’ model was firstly generated containing all fixed-effect parameters, with ‘Site’ and/or ‘Transect’ and/or ‘Trial Phase” included as random effects. This allowed for the examination of both spatial (Site and Transect) and temporal (Trial Phase) impacts on the data. ‘Transect’ nested within ‘Site’ and ‘Trial Phase’ provided an improved model fit compared to any other random effect model, therefore all models were run with the inclusion of ‘Transect’ nested within ‘Site’ and ‘Trial Phase” as random effects. Akaike's information criterion corrected for small sample size (AICc) was used to compare models. Corresponding Akaike differences (Δi), the number of parameters (K), Akaike weights (Wi) and log-likelihoods (LL) were also calculated. As the model set was not balanced i.e., there were not equal numbers of models for each variable a cut-off of 10AICC was used (Bolker et al. 2009) to create the model averaging candidate model-sets from the relative importance of variables were derived. Correlations between the response variables used in linear regression models were examined using Dice's similarity coefficient (QS) due to the binary nature of three of the four variables (Choi et al. 2010).
Statistical significance was assumed wherever P≤0.05. All statistical analysis was run in R (R Core Team 2016), with package Ime4 (Bates et al. 2015) used for mixed-effects models and MuMIn (Barton 2016) used for AICc scores, weights, deltas, log-likelihoods and model averaging (using the dredge function).

wild, free-ranging rats [2] = assay: Field trials of single-compound synthetic lures in tracking tunnels (tracking rate); conditions: for attractiveness relative to peanut butter standard and control (aggregated tracking rate): tracking rate aggregated for all seven concentrations 10,000 to 0.01 ppm in fractionated coconut oil, one night, FIG. 2
Protocol: Synthetic lures comprising a single compound mixed in a carrier medium (fractionated coconut oil) were presented to wild, free-ranging rats at 7 concentrations, decreasing in orders of magnitude from 10,000 ppm to 0.01 ppm. The compounds and concentrations used are set out in Table 2. Lures were presented in 1.7 mL Eppendorf microtubes secured to the inside wall of tracking tunnels using a cable tie. Inked cards were placed in each tunnel to quantify the visitation and identity of species visiting lures. Lures were randomly assigned along transects, with a minimum 25-m spacing between lures and with transects separated by 200 m. A control (fractionated coconut oil only) and standard (peanut butter) were assigned to each transect, with each transect comprising of lures presented at the same concentration. The order of transects was randomised for each trial. All lures were left in situ for one rain-free night. Lures were scored using the presence of rat tracks on inked cards to provide a proportion of inked cards receiving a visit for each lure, hereafter termed the “tracking rate”. Binomial tests were used to compare the tracking rate of each individual lure against peanut butter at the end of the trial period. Binomial tests were run in R (R Core Team 2013). Ten trials were undertaken at independent sites across the Wainuiomata and Orongorongo catchment region and within the Akatarawa and Pakuratahi Forest Parks, Wellington region (41° 15S, 175° 00E), New Zealand between 15 Jul. 2015 and 11 Nov. 2015.

wild, free-ranging rats [3] = assay: Model selection / model averaging of blend-trial response variables (Visitation, Contact, Marking, Intensity); conditions: response variable Intensity (footprint squares); Phase removed as random effect
wild, free-ranging rats [4] = assay: Blend trials (Phase One and Phase Two) of single and multi-component lures in tracking tunnels; conditions: Phase One; for performance versus top performing lure CF (binomial test): P<0.03
Text: Lure preparation and presentation methods followed those outlined above.
For Phase One, A6, B6, C6, F7 and 17 identified as in Table 2 were presented. For example, A6 and B6 were blended together in equal parts to make a dyad lure coded AB. Each trial consisted of a single spatially stratified transect. Each strata contained one of each lure, a control (FCO) and the standard (peanut butter). The number of transect strata varied between trials according to site conditions i.e., track length and accessibility. Lures were spaced at 50 m, with the order of lures randomised within transect strata and between each trial. All lures were left in situ for two rain-free night. Ten trials were undertaken at independent sites across the Greater Wellington region and Richmond Range, Nelson, New Zealand between 11 Nov. 2015 and 25 Feb. 2016.
For Phase Two, the best performing single and dyad lures identified after Phase One were presented. In addition, all possible triad, tetrad and pentad blend combinations of A, B, C, F and I were created and trialled. […]
as §1, with “The elimination of poorer performing lures allowed for higher levels of internal replication and the inclusion of additional multi-component blend lures to Phase Two.” left out, “The tracking rate was used to direct the elimination process. Lures that were statistically less attractive than the best performing lure after Phase One trials were eliminated from subsequent trials.” left out, “Intensity was designed to identify lures that generated intensive or multiple visits by an individual or that elicited visits from multiple individuals.” left out

CC(C)CCO [A, isoamyl alcohol]
relative importance of variable (model averaging), Contact (wild, free-ranging rats [1]): 0.68
relative importance of variable (model averaging), Marking (wild, free-ranging rats [1]): 0.95
relative importance of variable (model averaging), Visitation (wild, free-ranging rats [1]): 0.69
attractiveness relative to peanut butter standard and control (aggregated tracking rate) (wild, free-ranging rats [2]): more attractive than the peanut butter standard
relative importance of variable (model averaging), Intensity (wild, free-ranging rats [3]): 0.85

CCC(C)COC(C)=O (stereo not drawn) [I, 2-methylbutyl acetate]
relative importance of variable (model averaging), Contact (wild, free-ranging rats [1]): 0.48
relative importance of variable (model averaging), Marking (wild, free-ranging rats [1]): 0.95
relative importance of variable (model averaging), Visitation (wild, free-ranging rats [1]): 0.84
attractiveness relative to peanut butter standard and control (aggregated tracking rate) (wild, free-ranging rats [2]): more attractive than the peanut butter standard
relative importance of variable (model averaging), Intensity (wild, free-ranging rats [3]): 0.88

CC(C)CC(=O)O [D, Isopentanoic acid]
attractiveness relative to peanut butter standard and control (aggregated tracking rate) (wild, free-ranging rats [2]): less attractive than the peanut butter standard and the control

CC(=O)OCC(C)C [F, isobutyl acetate]
relative importance of variable (model averaging), Contact (wild, free-ranging rats [1]): 0.78
relative importance of variable (model averaging), Marking (wild, free-ranging rats [1]): 0.987
relative importance of variable (model averaging), Visitation (wild, free-ranging rats [1]): 0.70
attractiveness relative to peanut butter standard and control (aggregated tracking rate) (wild, free-ranging rats [2]): more attractive than the peanut butter standard
performance versus top performing lure CF (binomial test) (wild, free-ranging rats [4]): statistically weaker
relative importance of variable (model averaging), Intensity (wild, free-ranging rats [3]): 0.86

Cc1nccnc1C [E, 2,3-dimethylpyrazine]
attractiveness relative to peanut butter standard and control (aggregated tracking rate) (wild, free-ranging rats [2]): less attractive than the peanut butter standard and the control

CC(=O)OCCC(C)C [G, Isopentyl acetate]
trend of attraction with concentration (wild, free-ranging rats [2]; seven concentrations 10,000 to 0.01 ppm): no trend
attractiveness relative to peanut butter standard and control (aggregated tracking rate) (wild, free-ranging rats [2]): less attractive than the peanut butter standard and the control

CCCCCCO [B, 1-hexanol]
relative importance of variable (model averaging), Contact (wild, free-ranging rats [1]): 0.50
relative importance of variable (model averaging), Marking (wild, free-ranging rats [1]): 0.95
relative importance of variable (model averaging), Visitation (wild, free-ranging rats [1]): 0.90
attractiveness relative to peanut butter standard and control (aggregated tracking rate) (wild, free-ranging rats [2]): more attractive than the peanut butter standard
performance versus top performing lure CF (binomial test) (wild, free-ranging rats [4]): statistically weaker
relative importance of variable (model averaging), Intensity (wild, free-ranging rats [3]): 0.89

Cc1nc(C)c(C)nc1C [H, Tetramethylpyrazine]
attractiveness relative to peanut butter standard and control (aggregated tracking rate) (wild, free-ranging rats [2]): less attractive than the peanut butter standard but more attractive than the control

CC(=O)C(C)O (stereo not drawn) [C, acetoin]
relative importance of variable (model averaging), Contact (wild, free-ranging rats [1]): 0.50
relative importance of variable (model averaging), Marking (wild, free-ranging rats [1]): 0.96
relative importance of variable (model averaging), Visitation (wild, free-ranging rats [1]): 0.58
attractiveness relative to peanut butter standard and control (aggregated tracking rate) (wild, free-ranging rats [2]): more attractive than the peanut butter standard
tracking rate (wild, free-ranging rats [4]; 10 sites, n=30 per lure, two nights, summer months): 0.20
relative importance of variable (model averaging), Intensity (wild, free-ranging rats [3]): 0.94
